Compound in this experiment: CC(=O)N1CCc2c(c(N3CCCc4cc(-c5cnn(C)c5)c(C(F)F)cc43)nn2C2CCC(CN3CCN(c4ccc5c(c4)C(=O)N(C4CCC(=O)NC4=O)C5=O)CC3)CC2)C1 [CBPD-409]
The experiment in a line: AUC of viability dose-response curve (relative to vehicle, 8 doses up to 10 µM) (fraction); higher = less sensitive (more viable); extreme values may be limits of the assay. How it is done: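 PRISM multiplexed pooled barcoded cell line viability screen at the Broad Institute, 887 cancer cell lines treated with CBPD-409 (p300/CBP PROTAC degrader) at 8 concentrations in threefold dilution, top dose 10 µM. The read-out is the area under the dose-response curve of relative viability versus vehicle (n=3). AUC < 0.3 is called strongly sensitive and AUC > 0.8 resistant.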

± gives the standard deviation of the averaged measurements.

These results are taken from the supplement of paper PMC12513837.

As for 8MGBA_CENTRAL_NERVOUS_SYSTEM, the “AUC of viability dose-response curve” value was 0.79.

With 22RV1_PROSTATE, the “AUC of viability dose-response curve” value came out at 0.189. The figure for 42MGBA_CENTRAL_NERVOUS_SYSTEM is 0.485.

Take 93T449_SOFT_TISSUE: the “AUC of viability dose-response curve” value came to 1. As to 94T778_SOFT_TISSUE, the “AUC of viability dose-response curve” value is 0.951. Regarding 95T1000_SOFT_TISSUE, the “AUC of viability dose-response curve” value was 0.44. The figure for 143B_BONE is 1; for 253JBV_URINARY_TRACT it is 1. Turning to 253J_URINARY_TRACT, the “AUC of viability dose-response curve” value was 1.

In the case of 639V_URINARY_TRACT, the “AUC of viability dose-response curve” value is 0.515. 647V_URINARY_TRACT: the “AUC of viability dose-response curve” value was determined as 0.394. The figure for 697_HAEMATOPOIETIC_AND_LYMPHOID_TISSUE is 0.293. Consider 769P_KIDNEY, for which the “AUC of viability dose-response curve” value is 0.395.

On to 786O_KIDNEY, for which the “AUC of viability dose-response curve” value came out at 0.84. For 921_UVEA, the “AUC of viability dose-response curve” value worked out at 0.336. On to 1618K_TESTIS, for which the “AUC of viability dose-response curve” value is 0.518.

Take 1777NRPMET_TESTIS: the “AUC of viability dose-response curve” value turned out to be 0.655. The figure for 5637_URINARY_TRACT is 1; for 8305C_THYROID it is 0.823; for 8505C_THYROID it is 0.943. The figure for 9505BIK_PANCREAS is 1; for 2313287_STOMACH it is 0.631; for “A3KAW_HAEMATOPOIETIC_AND_LYMPHOID_TISSUE” it is 0.325. The figure for A101D_SKIN is 1.

On to A172_CENTRAL_NERVOUS_SYSTEM, for which the “AUC of viability dose-response curve” value came to 0.797. The figure for A253_SALIVARY_GLAND is 0.883. The figure for A375_SKIN is 0.47; for A388_SKIN it is 0.978; for A427_LUNG it is 0.884. The figure for A498_KIDNEY is 0.943; for A549_LUNG it is 1; for A673_BONE it is 1.

Take A704_KIDNEY: the “AUC of viability dose-response curve” value was 0.942. The figure for A1207_CENTRAL_NERVOUS_SYSTEM is 1. The figure for A2058_SKIN is 1.

Consider A2780_OVARY, for which the “AUC of viability dose-response curve” value came to 0.625. The figure for ABC1_LUNG is 0.977; for ACCMESO1_PLEURA it is 1; for ACHN_KIDNEY it is 0.807.

As for AGS_STOMACH, the “AUC of viability dose-response curve” value was 0.812. The figure for “ALLSIL_HAEMATOPOIETIC_AND_LYMPHOID_TISSUE” is 0.917; for AM38_CENTRAL_NERVOUS_SYSTEM it is 1; for AMO1_HAEMATOPOIETIC_AND_LYMPHOID_TISSUE it is 0.46. With AN3CA_ENDOMETRIUM, the “AUC of viability dose-response curve” value was 0.693. As to ANGMCSS_CENTRAL_NERVOUS_SYSTEM, the “AUC of viability dose-response curve” value came out at 1. As for ASPC1_PANCREAS, the “AUC of viability dose-response curve” value is 0.845. The figure for AU565_BREAST is 1; for BC3C_URINARY_TRACT it is 1.

Regarding BCPAP_THYROID, the “AUC of viability dose-response curve” value was 0.885.

For the test system BDCM_HAEMATOPOIETIC_AND_LYMPHOID_TISSUE, the “AUC of viability dose-response curve” value was found to be 0.431.

On to BECKER_CENTRAL_NERVOUS_SYSTEM, for which the “AUC of viability dose-response curve” value worked out at 0.88. The figure for BEN_LUNG is 0.562; for BFTC905_URINARY_TRACT it is 0.443; for BFTC909_KIDNEY it is 1. The figure for BHT101_THYROID is 0.581.

With BHY_UPPER_AERODIGESTIVE_TRACT, the “AUC of viability dose-response curve” value turned out to be 0.851. The figure for BICR6_UPPER_AERODIGESTIVE_TRACT is 0.907; for BICR16_UPPER_AERODIGESTIVE_TRACT it is 0.181; for BICR18_UPPER_AERODIGESTIVE_TRACT it is 1. The figure for BICR22_UPPER_AERODIGESTIVE_TRACT is 0.901. The figure for BICR31_UPPER_AERODIGESTIVE_TRACT is 0.695; for BICR56_UPPER_AERODIGESTIVE_TRACT it is 0.862. Take BICR78_UPPER_AERODIGESTIVE_TRACT: the “AUC of viability dose-response curve” value stood at 0.547. The figure for BL2_HAEMATOPOIETIC_AND_LYMPHOID_TISSUE is 0.77; for “BLUE1_HAEMATOPOIETIC_AND_LYMPHOID_TISSUE” it is 0.311; for BOKU_CERVIX it is 0.581. The figure for BT12_SOFT_TISSUE is 0.706; for BT16_SOFT_TISSUE it is 1. The figure for BT474_BREAST is 0.643; for BT549_BREAST it is 1; for “BV173_HAEMATOPOIETIC_AND_LYMPHOID_TISSUE” it is 0.271. C4I_CERVIX: the “AUC of viability dose-response curve” value is 0.999. On to C32_SKIN, for which the “AUC of viability dose-response curve” value amounted to 0.562. The figure for C33A_CERVIX is 1; for C75_LARGE_INTESTINE it is 1. The figure for C80_LARGE_INTESTINE is 0.689. The figure for “C8166_HAEMATOPOIETIC_AND_LYMPHOID_TISSUE” is 0.546; for CADOES1_BONE it is 0.458 ± 0.12; for CAKI1_KIDNEY it is 0.644. CAL12T_LUNG: the “AUC of viability dose-response curve” value was 0.645. The figure for CAL27_UPPER_AERODIGESTIVE_TRACT is 0.961. The figure for CAL29_URINARY_TRACT is 0.7; for CAL33_UPPER_AERODIGESTIVE_TRACT it is 0.694. Take CAL51_BREAST: the “AUC of viability dose-response curve” value was 0.595. The figure for CAL54_KIDNEY is 0.502; for CAL62_THYROID it is 0.321. For the test system CAL72_BONE, the “AUC of viability dose-response curve” value came to 0.839. The figure for CAL78_BONE is 0.486.

Regarding CAL120_BREAST, the “AUC of viability dose-response curve” value amounted to 0.497.

As for CAL148_BREAST, the “AUC of viability dose-response curve” value is 1.

As to CALU1_LUNG, the “AUC of viability dose-response curve” value came out at 0.901. The figure for CALU6_LUNG is 0.928; for CAMA1_BREAST it is 0.746; for CAOV3_OVARY it is 0.648. In the case of CAPAN2_PANCREAS, the “AUC of viability dose-response curve” value worked out at 1. The figure for CAS1_CENTRAL_NERVOUS_SYSTEM is 0.665; for CASKI_CERVIX it is 0.376; for CBAGPN_BONE it is 0.79. The figure for CCFSTTG1_CENTRAL_NERVOUS_SYSTEM is 0.992; for CCK81_LARGE_INTESTINE it is 0.86. The figure for CCLFPEDS0003T_SOFT_TISSUE is 0.392; for CCLP1_BILIARY_TRACT it is 0.45. Consider CCSW1_BILIARY_TRACT, for which the “AUC of viability dose-response curve” value was determined as 0.832.

With CFPAC1_PANCREAS, the “AUC of viability dose-response curve” value was determined as 1. The figure for CH157MN_CENTRAL_NERVOUS_SYSTEM is 0.899; for CHAGOK1_LUNG it is 0.748; for CHL1_SKIN it is 0.148. The figure for CHLA06ATRT_SOFT_TISSUE is 1; for CHLA10_BONE it is 0.97. The figure for CHLA15_AUTONOMIC_GANGLIA is 0.551; for CHLA57_BONE it is 0.647; for CHLA200_CENTRAL_NERVOUS_SYSTEM it is 0.168. As for CI1_HAEMATOPOIETIC_AND_LYMPHOID_TISSUE, the “AUC of viability dose-response curve” value was found to be 0.674. The figure for CJM_SKIN is 0.415; for CL11_LARGE_INTESTINE it is 0.326; for CL34_LARGE_INTESTINE it is 0.812. The figure for “CMLT1_HAEMATOPOIETIC_AND_LYMPHOID_TISSUE” is 0.666; for COGAR359_SOFT_TISSUE it is 1; for COGE352_BONE it is 1.

In the case of COGN278_AUTONOMIC_GANGLIA, the “AUC of viability dose-response curve” value came out at 0.345.
